The values that follow come from patent US10899753B2, “Inhibiting agents for Bruton's tyrosine kinase” (BIOGEN MA INC., priority 2018, dated 2021).

Molecules are shown by their SMILES. Where only a bound is given, the exact number is not on record here.

In test [1] the target is T1, BTK (Homo sapiens (Human), UniProt Q06187). In words: In Vitro BTK Kinase Assay: BTK-POLYGAT-LS ASSAY. The format is biochemical. Particulars: fluorescein-labeled polyGAT peptide 100 nM, BTK enzyme 0.25 nM, 30 minutes, TRF. On the procedure: In Vitro BTK Kinase Assay: BTK-POLYGAT-LS ASSAY
T1 sequence (Q06187 whole entry): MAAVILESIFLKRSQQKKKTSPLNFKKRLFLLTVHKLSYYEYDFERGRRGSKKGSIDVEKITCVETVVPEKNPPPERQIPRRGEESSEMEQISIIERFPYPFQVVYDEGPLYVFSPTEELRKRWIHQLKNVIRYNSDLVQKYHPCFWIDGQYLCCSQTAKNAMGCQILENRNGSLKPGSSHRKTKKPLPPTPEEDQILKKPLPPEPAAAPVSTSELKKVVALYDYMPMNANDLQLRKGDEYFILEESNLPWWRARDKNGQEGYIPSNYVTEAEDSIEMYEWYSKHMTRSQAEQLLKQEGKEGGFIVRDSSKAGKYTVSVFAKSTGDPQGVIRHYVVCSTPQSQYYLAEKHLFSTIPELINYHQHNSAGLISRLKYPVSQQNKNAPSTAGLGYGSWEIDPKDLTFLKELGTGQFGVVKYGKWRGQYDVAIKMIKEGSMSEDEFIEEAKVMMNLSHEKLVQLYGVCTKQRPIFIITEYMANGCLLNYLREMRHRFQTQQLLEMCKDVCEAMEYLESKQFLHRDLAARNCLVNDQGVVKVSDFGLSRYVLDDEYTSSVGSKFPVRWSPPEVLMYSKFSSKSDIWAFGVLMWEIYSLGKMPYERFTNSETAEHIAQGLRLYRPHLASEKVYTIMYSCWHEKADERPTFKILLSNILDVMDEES
The purpose of the BTK in vitro assay is to determine compound potency against BTK through the measurement of IC50. […] For a typical assay, a […] aliquot of a ATP/peptide master mix (final concentration; ATP […], polyGAT 100 nM) in kinase buffer (10 mM Tris-HCl pH 7.5, 10 mM MgCl2, 200 μM Na3PO4, 5 mM DTT, 0.01% Triton X-100, and 0.2 mg/ml casein) is added to each well. […] The assay is incubated for 30 minutes before being stopped with 28 μL of a 50 mM EDTA solution. […] The plate is covered and incubated for 45 minutes at room temperature. Time resolved fluorescence (TRF) on Molecular Devices M5 (332 nm excitation; 488 nm emission; 518 nm fluorescein emission) is measured.

In test [2] the target is T1, BTK. In words: In Vitro PD Assay in Human Whole Blood (pBTK assay). The format is cell-based. Particulars: human heparinized whole blood, 37° C. for 30 min, total BTK capture and phosphotyrosine detection (ECL). As for the experimental part:
In Vitro PD Assay in Human Whole Blood
Human heparinized venous blood was purchased from Bioreclamation, Inc. or SeraCare Life Sciences and shipped overnight. Whole blood was aliquoted into 96-well plate and “spiked” with serial dilutions of test compound in DMSO or with DMSO without drug. The final concentration of DMSO in all wells was 0.1%. The plate was incubated at 37° C. for 30 min. Lysis buffer containing protease and phosphatase inhibitors was added to the drug-containing samples and one of the DMSO-only samples (+PPi, high control), while lysis buffer containing protease inhibitors was added to the other DMSO-only samples (−PPi, low control). All of the lysed whole blood samples were subjected to the total BTK capture and phosphotyrosine detection method described in US20160311802, incorporated herein by reference.

Turning to `Cc1c(CNC(=O)c2noc(C(C)(C)CF)n2)ccc(-c2ncnc(Nc3ccn(C)n3)n2)c1F` [Compound 45, N-(3-fluoro-2-methyl-4-(4-((1-methyl-1H-pyrazol-3-yl)amino)-1,3,5-triazin-2-yl)benzyl)-5-(1-fluoro-2-methylpropan-2-yl)-1,2,4-oxadiazole-3-carboxamide], the IC50 against BTK [1] was less than 1 nM; at BTK [2] it was 100 to 500 nM.

With `Cn1cc(Nc2ncnc(-c3ccc(CNC(=O)c4coc(C(C)(C)C)n4)c(Cl)c3F)n2)cn1` [Compound 103, 2-(tert-butyl)-N-(2-chloro-3-fluoro-4-(4-((1-methyl-1H-pyrazol-4-yl)amino)-1,3,5-triazin-2-yl)benzyl)oxazole-4-carboxamide], the IC50 at BTK [1] is less than 1 nM; on BTK [2], 100 to 500 nM.

On to `Cc1c(CNC(=O)c2nc(C3(CF)CC3)no2)ccc(-c2ncnc(Nc3cnn(C)c3)n2)c1F` [Compound 47, N-(3-fluoro-2-methyl-4-(4-((1-methyl-1H-pyrazol-4-yl)amino)-1,3,5-triazin-2-yl)benzyl)-3-(1-(fluoromethyl)cyclopropyl)-1,2,4-oxadiazole-5-carboxamide], for which the IC50 against BTK [1] was less than 1 nM; against BTK [2] it was less than 100 nM.

For `Cc1cc(-c2ncnc(Nc3ccn(C)n3)n2)ccc1CNC(=O)c1cc(C(C)(C)C)on1` [Compound 42, 5-(tert-butyl)-N-(2-methyl-4-(4-((1-methyl-1H-pyrazol-3-yl)amino)-1,3,5-triazin-2-yl)benzyl)isoxazole-3-carboxamide], the IC50 against BTK [1] was in the range of 1 to 10 nM; against BTK [2], 500 to 10000 nM.

As for `Cn1ccc(Nc2ncnc(-c3ccc4c(c3)CCCC[C@H]4NC(=O)c3noc(C(C)(C)C)n3)n2)n1` [Compound 23, 5-tert-butyl-N-[(5R)-2-[4-[(1-methylpyrazol-3-yl)amino]-1,3,5-triazin-2-yl]-6,7,8,9-tetrahydro-5H-benzo[7]annulen-5-yl]-1,2,4-oxadiazole-3-carboxamide], the results for the IC50 at BTK [1] and against BTK [2] were less than 1 nM and 100 to 500 nM, respectively.

For the compound `Cc1c(CNC(=O)c2cn(C(C)(C)C)nn2)ccc(-c2ncnc(Nc3cnn(C)c3)n2)c1F` [Compound 105, 1-(tert-butyl)-N-(3-fluoro-2-methyl-4-(4-((1-methyl-1H-pyrazol-4-yl)amino)-1,3,5-triazin-2-yl)benzyl)-1H-1,2,3-triazole-4-carboxamide], the figures for the IC50 on BTK [1] and on BTK [2] were less than 1 nM and 100 to 500 nM, respectively.

With `Cn1ccc(Nc2ncnc(-c3ccc(CNC(=O)c4nc(C(C)(C)C)no4)c(Cl)c3)n2)n1` [Compound 6, 3-(tert-butyl)-N-(2-chloro-4-(4-((1-methyl-1H-pyrazol-3-yl)amino)-1,3,5-triazin-2-yl)benzyl)-1,2,4-oxadiazole-5-carboxamide], the IC50 on BTK [1] is less than 1 nM; at BTK [2] it was 500 to 10000 nM.

As for `Cc1c(-c2ncnc(Nc3cnn(C)c3)n2)ccc([C@@H](C)NC(=O)c2nc(C(C)(C)C)no2)c1Cl` [Compound 78, (R)-3-(tert-butyl)-N-(1-(2-chloro-3-methyl-4-(4-((1-methyl-1H-pyrazol-4-yl)amino)-1,3,5-triazin-2-yl)phenyl)ethyl)-1,2,4-oxadiazole-5-carboxamide], the IC50 at BTK [1] fell in the range of 1 to 10 nM; against BTK [2] it was 100 to 500 nM.

`Cc1c([C@@H](C)NC(=O)c2noc(C(C)(C)C)n2)ccc(-c2ncnc(Nc3ccn(C)n3)n2)c1F` [Compound 71, (R)-5-(tert-butyl)-N-(1-(3-fluoro-2-methyl-4-(4-((1-methyl-1H-pyrazol-3-yl)amino)-1,3,5-triazin-2-yl)phenyl)ethyl)-1,2,4-oxadiazole-3-carboxamide]: the IC50 against BTK [1] was less than 1 nM; against BTK [2], 100 to 500 nM.

As to `Cn1cc(Nc2ncnc(-c3cc4c(cc3F)[C@H](NC(=O)c3nc(C(C)(C)C)no3)CCCC4)n2)cn1` [Compound 87, (R)-3-(tert-butyl)-N-(3-fluoro-2-(4-((1-methyl-1H-pyrazol-4-yl)amino)-1,3,5-triazin-2-yl)-6,7,8,9-tetrahydro-5H-benzo[7]annulen-5-yl)-1,2,4-oxadiazole-5-carboxamide], the IC50 was less than 1 nM against BTK [1] and less than 100 nM on BTK [2].

With `Cc1cc(-c2ncnc(Nc3cnn(C)c3)n2)ccc1CNC(=O)c1cn(C(C)(C)C)nn1` [Compound 109, 1-(tert-butyl)-N-(2-methyl-4-(4-((1-methyl-1H-pyrazol-4-yl)amino)-1,3,5-triazin-2-yl)benzyl)-1H-1,2,3-triazole-4-carboxamide], the results for the IC50 on BTK [1] and against BTK [2] were 1 to 10 nM and 100 to 500 nM, respectively.

For `Cc1cc(-c2ncnc(Nc3cnn(C)c3)n2)c(F)cc1CNC(=O)c1coc(C(C)(C)C)n1` [Compound 65, 2-(tert-butyl)-N-(5-fluoro-2-methyl-4-(4-((1-methyl-1H-pyrazol-4-yl)amino)-1,3,5-triazin-2-yl)benzyl)oxazole-4-carboxamide], the IC50 on BTK [1] was less than 1 nM; against BTK [2], 500 to 10000 nM.

Turning to `Cc1cc(-c2ncnc(Nc3cnn(C)c3)n2)c(F)cc1CNC(=O)c1nc(C(C)(C)C)no1` [Compound 57, 3-(tert-butyl)-N-(5-fluoro-2-methyl-4-(4-((1-methyl-1H-pyrazol-4-yl)amino)-1,3,5-triazin-2-yl)benzyl)-1,2,4-oxadiazole-5-carboxamide], the IC50 was less than 1 nM at BTK [1] and 100 to 500 nM against BTK [2].

In the case of `Cn1ccc(Nc2ncnc(-c3ccc4c(c3)CN(CC(F)(F)F)CC[C@H]4NC(=O)c3coc(C(C)(C)C)n3)n2)n1` [Compound 95, (R)-2-(tert-butyl)-N-(8-(4-((1-methyl-1H-pyrazol-3-yl)amino)-1,3,5-triazin-2-yl)-2-(2,2,2-trifluoroethyl)-2,3,4,5-tetrahydro-1H-benzo[c]azepin-5-yl)oxazole-4-carboxamide], the IC50 at BTK [1] is less than 1 nM; against BTK [2], 500 to 10000 nM.

With `Cc1c([C@@H](C)NC(=O)c2cc(C(C)(C)C)no2)ccc(-c2ncnc(Nc3cnn(C)c3)n2)c1F` [Compound 75, (R)-3-(tert-butyl)-N-(1-(3-fluoro-2-methyl-4-(4-((1-methyl-1H-pyrazol-4-yl)amino)-1,3,5-triazin-2-yl)phenyl)ethyl)isoxazole-5-carboxamide], the values for the IC50 at BTK [1] and at BTK [2] were less than 1 nM and 100 to 500 nM, respectively.

In the case of `Cc1cc(-c2ncnc(Nc3cnn(C)c3)n2)ccc1CNC(=O)c1nc(C(C)(C)C)co1` [Compound 114, 4-(tert-butyl)-N-(2-methyl-4-(4-((1-methyl-1H-pyrazol-4-yl)amino)-1,3,5-triazin-2-yl)benzyl)oxazole-2-carboxamide], the values for the IC50 against BTK [1] and on BTK [2] were less than 1 nM and 500 to 10000 nM, respectively.

For the compound `Cc1c(CNC(=O)c2ncc(C(C)(C)C)o2)ccc(-c2ncnc(Nc3cnn(C)c3)n2)c1F` [Compound 31, 5-(tert-butyl)-N-(3-fluoro-2-methyl-4-(4-((1-methyl-1H-pyrazol-4-yl)amino)-1,3,5-triazin-2-yl)benzyl)oxazole-2-carboxamide], the IC50 at BTK [1] was less than 1 nM; against BTK [2] it was 500 to 10000 nM.

With `Cc1cc(-c2ncnc(Nc3cnn(C)c3)n2)c(F)cc1CNC(=O)c1nc(C2(CF)CC2)no1` [Compound 60, N-(5-fluoro-2-methyl-4-(4-((1-methyl-1H-pyrazol-4-yl)amino)-1,3,5-triazin-2-yl)benzyl)-3-(1-(fluoromethyl)cyclopropyl)-1,2,4-oxadiazole-5-carboxamide], the IC50 was less than 1 nM against BTK [1] and 100 to 500 nM against BTK [2].

Regarding `C[C@@H](NC(=O)c1noc(C(C)(C)C)n1)c1ccc(-c2ncnc(Nc3cnn(C)c3)n2)c(F)c1Cl` [Compound 69, (R)-5-(tert-butyl)-N-(1-(2-chloro-3-fluoro-4-(4-((1-methyl-1H-pyrazol-4-yl)amino)-1,3,5-triazin-2-yl)phenyl)ethyl)-1,2,4-oxadiazole-3-carboxamide], the values for the IC50 against BTK [1] and at BTK [2] were less than 1 nM and less than 100 nM, respectively.

Regarding `Cc1c(CNC(=O)c2noc(C3(C)CC3)n2)ccc(-c2ncnc(Nc3ccn(C)n3)n2)c1F` [Compound 113, N-(3-fluoro-2-methyl-4-(4-((1-methyl-1H-pyrazol-3-yl)amino)-1,3,5-triazin-2-yl)benzyl)-5-(1-methylcyclopropyl)-1,2,4-oxadiazole-3-carboxamide], the IC50 on BTK [1] is less than 1 nM; at BTK [2], 100 to 500 nM.

For the compound `Cn1ccc(Nc2ncnc(-c3ccc4c(c3F)CCCC[C@H]4NC(=O)c3nc(C(C)(C)C)no3)n2)n1` [Compound 89, (R)-3-(tert-butyl)-N-(1-fluoro-2-(4-((1-methyl-1H-pyrazol-3-yl)amino)-1,3,5-triazin-2-yl)-6,7,8,9-tetrahydro-5H-benzo[7]annulen-5-yl)-1,2,4-oxadiazole-5-carboxamide], the figures for the IC50 on BTK [1] and on BTK [2] were less than 1 nM and less than 100 nM, respectively.

As to `Cn1cc(Nc2ncnc(-c3ccc(CNC(=O)c4nc(C(C)(C)C)no4)c(Cl)c3F)n2)cn1` [Compound 29, 3-(tert-butyl)-N-(2-chloro-3-fluoro-4-(4-((1-methyl-1H-pyrazol-4-yl)amino)-1,3,5-triazin-2-yl)benzyl)-1,2,4-oxadiazole-5-carboxamide], the concentration for half-maximal inhibition (IC50) against BTK [1] was less than 1 nM; on BTK [2], less than 100 nM.

One may read the IC50 as the midpoint of a concentration-inhibition curve.
